In patent US7288256B1, “T cell epitopes of the major allergens from dermatophagoides (house dust mite)” (Merck Patent GmbH, priority 1991, dated 2007):
Residues, ends and D or L forms follow the SMILES beside them.

B1: rDer p II: recombinant Der p II expressed in E. coli as His6 fusion (protein)
chain: MGHHHHHHEFDQVDVKDCANHEIKKVLVPGCHGSEPCIIHRGKPFQLEAVFEANQNTKTAKIEIKASIDGLEVDVPGIDPNACHYMKCPLVKGQQYDIKYTWNVPKIAPKSENVVVTVKVMGDDGVLACAIATHAKIRD
B2: biochemically purified Der f I: Group I protein allergen of Dermatophagoides farinae, immunoaffinity purified native form (protein)
chain: TSACRINSVNVPSELDLRSLRTVTPIRMQGGCGSCWAFSGVAATESAYLAYRNTSLDLSEQELVDCASQHGCHGDTIPRGIEYIQQNGVVEERSYPYVAREQRCRRPNSQHYGISNYCQIYPPDVKQIREALTQTHTAIAVIIGIKDLRAFQHYDGRTIIQHDNGYQPNYHAVNIVGYGSTQGDDYWIVRNSWDTTWGDSGYGYFQAGNNLMMIEQYPYVVIM
B3: recombinant Der f I: recombinant Der f I expressed in E. coli as His6 fusion (protein)
chain: MGHHHHHHEFTSACRINSVNVPSELDLRSLRTVTPIRMQGGCGSCWAFSGVAATESAYLAYRNTSLDLSEQELVDCASQHGCHGDTIPRGIEYIQQNGVVEERSYPYVAREQRCRRPNSQHYGISNYCQIYPPDVKQIREALTQTHTAIAVIIGIKDLRAFQHYDGRTIIQHDNGYQPNYHAVNIVGYGSTQGDDYWIVRNSWDTTWGDSGYGYFQAGNNLMMIEQYPYVVIM

Key:
[1] = pH-stability profile of candidate peptides (percent degradant peak area by HPLC); settings: for stability (in words): single peptide, aqueous buffer, pH 6 to pH 8, development of DPII-22.14; for solution stability in equal concentration combination: 3, 2 and 1 mg/ml per peptide, 24 hours at about 5° C. and about 22° C., common window within pH 6 to pH 8
Protocol: The concentration of filtered peptide solutions was determined by HPLC analysis. In this experiment, the solubility of peptide at each pH is defined as the amount of peptide remaining in solution after filtration through a membrane filter having a 0.2 micrometer pore size. The extent of degradation of peptides was estimated by calculating the percent of total degradant peak area over the total peak area.

[2] = pH-solubility profile of candidate peptides (HPLC of filtrate); format: physicochemical; settings: for solubility (in words, against the superior solubility standard of 3 mg/ml): development of DPII-22.14 from DpII-22; for solubility thermodynamic at 24 h: at a pH in the pH range of pH 6 to pH 8, 50 mM sodium phosphate, about 22° C.
Protocol: Stock solution A: 0.66 g […] of monobasic sodium phosphate monohydrate U.S.P. and 50 mg EDTA disodium dihydrate, U.S.P. were dissolved in 100 mL of WFI. The solution was filtered through a 0.2 micron filter
Stock solution B: 0.71 g […] of dibasic sodium phosphate U.S.P. were disolved in 100 ml WFI. The solution was filtered through a 0.2 micron filter.
Dispersions A and B were sonicated for 2 minutes for good homogeneity. A small volume was pipetted from each dispersion into a labeled eppendoff vial according to the following volume ratio:
The resultant solutions/suspensions were stored in the dark at about 22° C.±2 for 24 hours without agitation. The solutions were filtered and filtrates were analyzed for pH and peptide concentration.

human IgE = test: Direct binding ELISA of IgE to mite allergen proteins and peptides (Examples XIII, XV); settings: pooled human plasma from 20 mite skin test positive patients; coating antigen 5 μg/ml; FIGS. 19-21
Protocol: Corning assay plates (#25882-96) were coated with 5 μg/ml of each coating antigen listed in FIGS. 19, 20 and 21 at […] and incubated overnight at 4° C. The coating antigens were removed and the wells are blocked with 0.5% gelatin in PBS, 300 μl/well for 2 hours at room temperature. […] Louis, Mo.) and 100 μl/well a\was added and incubated overnight at 4° C. (plasma dilutions were tested in duplicate). The second antibody (biotinylated goat anti-Human IgE, 1:1000, Kirkegaard & Perry Laboratories Inc, Gaithersburg, Md.), was added at 100 μl/well for one hour at room temperature. This solution was removed and streptavidin-HRPO, 1:10000, (Southern Biotechnology Associates, Inc., Birmingham, Ala.) was then added at 100 μl/well for one hour at room temperature (all wells are washed three times with PBS-Tween between each incubation step). TMB Membrane Peroxidase Substrate system (Kirkegaard & Perry Laboratories) was freshly miced, and added at […]. The color was allowed to develop for 2-5 minutes. The reaction was stopped by the addition of […] of 1M phosphoric acid. Plates were read on a Microplate IL310 Autoreader (Biotech Instruments, Winooski, Vt.) with a 450 nm filter. The absorbance levels of duplicate wells were averaged. The order of coating antigens listed vertically in these figure legends corresponds in […] from left to right to the coating antigens listed for each histogram.

Molecule	stability (in words) [1]	solubility (in words, against the superior solubility standard of 3 mg/ml) [2]	solution stability in equal concentration combination [1]	solubility thermodynamic at 24 h [2]	IgE binding in direct ELISA (human IgE)	also measured
CC[C@H](C)[C@H](NC(=O)[C@H](CO)NC(=O)[C@H](C)NC(=O)[C@H](CCCCN)NC(=O)[C@@H](NC(=O)[C@H](CCC(=O)O)NC(=O)[C@@H](NC(=O)[C@H](CCCCN)NC(=O)[C@H](C)NC(=O)[C@@H](NC(=O)[C@H](CCCCN)NC(=O)[C@@H](NC(=O)[C@H](CC(N)=O)NC(=O)[C@H](CCC(N)=O)NC(=O)[C@H](CC(N)=O)NC(=O)[C@H](C)NC(=O)[C@H](CCC(=O)O)NC(=O)[C@H](Cc1ccccc1)NC(=O)[C@@H](NC(=O)[C@H](C)NC(=O)[C@H](CCC(=O)O)NC(=O)[C@H](CC(C)C)NC(=O)[C@H](CCC(N)=O)NC(=O)[C@H](CCCCN)NC(=O)[C@@H](N)CC(=O)O)C(C)C)[C@@H](C)O)[C@@H](C)O)[C@@H](C)CC)[C@@H](C)CC)C(=O)N[C@@H](CC(=O)O)C(=O)NCC(=O)N[C@@H](CC(C)C)C(=O)N[C@@H](CCC(=O)O)C(=O)N[C@H](C(=O)N[C@@H](CC(=O)O)C(=O)O)C(C)C [DP II-22.6] (H-DKQLEAVFEANQNTKTAKIEIKASIDGLEVD-OH)	stability improved substantially	solubility did not reach the standard				
CC[C@H](C)[C@H](NC(=O)[C@H](C)NC(=O)[C@H](CS)NC(=O)[C@H](C)NC(=O)[C@H](CC(C)C)NC(=O)[C@@H](NC(=O)CNC(=O)[C@H](CC(=O)O)NC(=O)[C@H](CC(=O)O)NC(=O)CNC(=O)[C@H](CCSC)NC(=O)[C@@H](NC(=O)[C@H](CCCCN)NC(=O)[C@@H](NC(=O)[C@@H](NC(=O)[C@H](CCC(=O)O)NC(=O)[C@H](CCC(=O)O)NC(=O)[C@@H](N)CC(=O)O)[C@@H](C)O)C(C)C)C(C)C)C(C)C)C(=O)N[C@@H](C)C(=O)N[C@H](C(=O)N[C@@H](Cc1c[nH]cn1)C(=O)N[C@@H](C)C(=O)N[C@@H](CCCCN)C(=O)N[C@H](C(=O)N[C@@H](CCCNC(=N)N)C(=O)N[C@@H](CC(=O)O)C(=O)N[C@@H](CCC(=O)O)C(=O)N[C@@H](CCC(=O)O)C(=O)O)[C@@H](C)CC)[C@@H](C)O [DP II-25.15] (H-DEETVKVMGDDGVLACAIATHAKIRDEE-OH; N-terminus and C-terminus assumed)			acceptable solution stability	> 3000 µg/mL		
CC[C@H](C)[C@H](NC(=O)[C@H](CCC(=O)O)NC(=O)[C@H](C)NC(=O)[C@@H]1CCCN1C(=O)[C@H](C)NC(=O)[C@H](CC(N)=O)NC(=O)CNC(=O)[C@H](CC(N)=O)NC(=O)[C@@H](NC(=O)[C@@H](N)CO)[C@@H](C)CC)C(=O)N[C@@H](CC(=O)O)C(=O)N[C@@H](CC(C)C)C(=O)N[C@@H](CCCNC(=N)N)C(=O)N[C@@H](CCC(N)=O)C(=O)N[C@@H](CCSC)C(=O)N[C@@H](CCCNC(=N)N)C(=O)N[C@H](C(=O)N[C@H](C(=O)N[C@H](C(=O)N1CCC[C@H]1C(=O)N[C@H](C(=O)N[C@@H](CCCNC(=N)N)C(=O)N[C@@H](CCSC)C(=O)N[C@@H](CCC(N)=O)C(=O)O)[C@@H](C)CC)[C@@H](C)O)C(C)C)[C@@H](C)O [DP I-21.2] (H-SINGNAPAEIDLRQMRTVTPIRMQ-OH; N-terminus and C-terminus assumed)			acceptable solution stability	> 3000 µg/mL		
CC(C)C[C@H](NC(=O)[C@H](CCC(=O)O)NC(=O)[C@H](CCCCN)NC(=O)[C@@H](N)CC(=O)O)C(=O)N[C@@H](CCC(=O)O)C(=O)N[C@@H](C)C(=O)N[C@H](C(=O)N[C@@H](Cc1ccccc1)C(=O)N[C@@H](CCC(=O)O)C(=O)N[C@@H](C)C(=O)N[C@@H](CC(N)=O)C(=O)N[C@@H](CCC(N)=O)C(=O)N[C@@H](CC(N)=O)C(=O)N[C@H](C(=O)N[C@@H](CCCCN)C(=O)N[C@H](C(=O)N[C@@H](C)C(=O)N[C@@H](CCCCN)C(=O)N[C@@H](C)C(=O)N[C@@H](CCC(=O)O)C(=O)O)[C@@H](C)O)[C@@H](C)O)C(C)C [DP II-22.14] (H-DKELEAVFEANQNTKTAKAE-OH; N-terminus and C-terminus assumed)			acceptable solution stability	> 3000 µg/mL		
CC[C@H](C)[C@H](NC(=O)[C@H](CO)NC(=O)[C@H](C)NC(=O)[C@H](CCCCN)NC(=O)[C@@H](NC(=O)[C@H](CCC(=O)O)NC(=O)[C@@H](NC(=O)[C@H](CCCCN)NC(=O)[C@H](C)NC(=O)[C@@H](NC(=O)[C@H](CCCCN)NC(=O)[C@@H](NC(=O)[C@H](CC(N)=O)NC(=O)[C@H](CCC(N)=O)NC(=O)[C@H](CC(N)=O)NC(=O)[C@H](C)NC(=O)[C@H](CCC(=O)O)NC(=O)[C@H](Cc1ccccc1)NC(=O)[C@@H](NC(=O)[C@H](C)NC(=O)[C@H](CCC(=O)O)NC(=O)[C@H](CC(C)C)NC(=O)[C@H](CCC(N)=O)NC(=O)[C@@H](N)CCCCN)C(C)C)[C@@H](C)O)[C@@H](C)O)[C@@H](C)CC)[C@@H](C)CC)C(=O)N[C@@H](CC(=O)O)C(=O)NCC(=O)N[C@@H](CC(C)C)C(=O)N[C@@H](CCC(=O)O)C(=O)N[C@H](C(=O)N[C@@H](CCCCN)C(=O)O)C(C)C [DP II-22.2] (H-KQLEAVFEANQNTKTAKIEIKASIDGLEVK-OH)	stability improved substantially	solubility did not reach the standard				
CC[C@H](C)[C@H](NC(=O)[C@H](CO)NC(=O)[C@H](C)NC(=O)[C@H](CCCCN)NC(=O)[C@@H](NC(=O)[C@H](CCC(=O)O)NC(=O)[C@@H](NC(=O)[C@H](CCCCN)NC(=O)[C@H](C)NC(=O)[C@@H](NC(=O)[C@H](CCCCN)NC(=O)[C@@H](NC(=O)[C@H](CC(N)=O)NC(=O)[C@H](CCC(N)=O)NC(=O)[C@H](CC(N)=O)NC(=O)[C@H](C)NC(=O)[C@H](CCC(=O)O)NC(=O)[C@H](Cc1ccccc1)NC(=O)[C@@H](NC(=O)[C@H](C)NC(=O)[C@H](CCC(=O)O)NC(=O)[C@H](CC(C)C)NC(=O)[C@@H](N)CCC(N)=O)C(C)C)[C@@H](C)O)[C@@H](C)O)[C@@H](C)CC)[C@@H](C)CC)C(=O)N[C@@H](CC(=O)O)C(=O)NCC(=O)N[C@@H](CC(C)C)C(=O)N[C@@H](CCC(=O)O)C(=O)N[C@H](C(=O)O)C(C)C [DP II-22] (H-QLEAVFEANQNTKTAKIEIKASIDGLEV-OH; N-terminus and C-terminus assumed)	stable	did not meet the “superior solubility” requirement of 3 mg/ml				stability (in words) ([1]; listed as QLEAVFEANQNTKTAKIEIKASIDGLEV): nor did it meet the stability requirement
B1					good binding	
B2					binding	
B3					no detectable binding	
